Assay results: patent publication US20240025899A1, “TRIHETEROCYCLIC DERIVATIVE, AND PHARMACEUTICAL COMPOSITION AND APPLICATION THEREOF” (SHANGHAI DE NOVO PHARMATECH CO., LTD., priority 2020, published 2024)
Counter-ions that a name gives are not always drawn.

Test system: OCI-LY19 human B-cell lymphoma
Experiment: In vivo drug efficacy, OCI-LY19 human B-cell lymphoma mouse subcutaneous xenograft tumor model
Experimental: Cell culture: Human B-cell lymphoma OCI-LY19 cells were maintained as a monolayer in MEM-α medium containing 10% fetal bovine serum in a constant temperature incubator at 37° C. with 5% CO2. Tumor cells were subcultured twice a week. Cells in exponential growth phase were harvested and counted for inoculation.
Experimental animals: BALB/c nude mice, 6-8 weeks old, 19-22 g, purchased from Beijing Vital River Laboratory Animal Technology Co., Ltd.
For Vehicle, positive control (AZD6738, CAS number: 1352226-88-0) and compound 2, a total of 6 experimental groups were set up, as shown in Table 5 below:
Experimental method: The OCI-LY19 cell line (3.0×10^6 cells/mouse) was inoculated subcutaneously on the right back of the experimental mouse, and the inoculation volume of each mouse was 0.1 mL, and the growth of tumors was observed regularly, and until the tumor grew to about 100 mm^3, the mice were randomly divided into groups according to the tumor size and body weight, and administered according to the administration plan shown in Table 5, and the mouse body weight and tumor size were measured twice a week during the whole experiment.
tumor volume (mm^3)=0.5×(tumor long diameter×tumor short diameter^2). Tumor size calculation formula: […]

[1] = Group 3, 5 mg/kg p.o. once a day
[2] = Group 4, 10 mg/kg p.o. once a day
[3] = Group 5, 10 mg/kg p.o. once a day × 4 days on, 3 days off
[4] = Group 6, 20 mg/kg p.o. once a day × 4 days on, 3 days off

With `C[C@@H]1COCCN1c1nc2c(cnn2-c2cc[nH]n2)c2c1CCN2S(C)(=O)=O` [Compound 2, (R)-3-methyl-4-(1-(methylsulfonyl)-6-(1H-pyrazol-3-yl)-1,2,3,6-tetrahydropyrazolo[3,4-b]pyrrolo[2,3-d]pyridin-4-yl)morpholine trifluoroacetate] the “T/C (%)” value [1] was 17.9%, the “TGI (%)” value [1] was 86.0% and the “Tumor volume (10 days, mm^3)” value [1] was 109.41 ± 4.35 mm^3. For the same compound, the “Tumor volume (24 days, mm^3)” value [1] was 424.51 ± 77.26 mm^3, the “T/C (%)” value [2] was 8.5% and the “TGI (%)” value [2] was 95.9%. For the same compound, the “Tumor volume (10 days, mm^3)” value [2] was 109.00 ± 4.19 mm^3, the “Tumor volume (24 days, mm^3)” value [2] was 202.09 ± 44.85 mm^3 and the “T/C (%)” value [3] was 15.9%. For the same compound, the “TGI (%)” value [3] was 88.2%, the “Tumor volume (10 days, mm^3)” value [3] was 109.20 ± 3.96 mm^3 and the “Tumor volume (24 days, mm^3)” value [3] was 375.56 ± 92.96 mm^3. For the same compound, the “T/C (%)” value [4] was 7.9%, the “TGI (%)” value [4] was 96.5% and the “Tumor volume (10 days, mm^3)” value [4] was 109.24 ± 4.22 mm^3. The “Tumor volume (24 days, mm^3)” value [4] was 187.91 ± 27.01 mm^3.
